Experimental findings from paper PMC12364115, “High-throughput virtual screening, identification and in vitro biological evaluation of novel inhibitors of PLK1 and NRP1” (Journal of Enzyme Inhibition and Medicinal Chemistry, 2025) are described below.

A value given as a limit tells only on which side of the number the result lay.

One assay concerns the target T1, NRP1 (Homo sapiens, UniProt O14786).
T1 construct: expressed in transfected cells; host or cells: HUVEC
Briefly: NRP1 inhibition assay (125I-VEGF-A165 binding, HUVEC cells transfected with NRP1). As to the method:
The method was as previously described. Briefly, HUVEC cells transfected with NRP1 were added to a 96-well plate and after growing to confluence, and the compounds were added to each well at different concentrations. Then, the ^125I-VEGF-A165 (0.1 nM) was added to measure non-specific binding. Data curves were plotted and half maximal inhibitory concentrations (IC50) were derived for the selected compounds using Prism 6.0 software.

The target of the next assay is T2, PLK1 (Homo sapiens, UniProt P53350).
T2 construct: purchased Abcam (Cambridge, MA, USA)
The assay is described as follows: PLK1 inhibition assay. Type of assay: biochemical. As to the method: The method was as previously described. Briefly, the enzyme reaction mixture containing different doses of compounds was incubated for 90 min at room temperature. Then the mixture was transferred to a Neutravidin-coated 384-well plate and incubated for 60 min at room temperature. Then the wells were incubated with 50 μL of the antibody mixture for 1 h. The bound europium was liberated using 50 μL of Enhancement Solution.

Another assay concerns A427 cells. Briefly: MTT assay A427. Type of assay: cell-based. The following applies: Homo sapiens, A-427, 72 h treatment, mean ± SD, n = 3. As to the method:
(§1) The lung cancer cells NCI-H460 (large cell lung carcinoma), A549 (adenocarcinoma), A427 (adenocarcinoma) and normal lung cells BEAS-2B (human normal lung epithelial cells) were purchased from The American Type Culture Collection (ATCC) (Manassas, VA, USA). The cells were cultured with Roswell Park Memorial Institute (RPMI) ‐1640 medium. The temperature of the cell culture was maintained at 37 °C. Hit compounds were obtained commercially from WuXi AppTec (PLN-1, Lot NO: P112561-P1; PLN-2, Lot NO: P112561-P2; PLN-3, Lot NO: P112561-P3; PLN-4, Lot NO: P112561-P4; PLN-5, Lot NO: P112561-P5) (Table S1). The purity of PLN 1-5 was more than 98% as determined by HPLC (Supplementary material). Human PLK1 and NRP1 proteins were purchased from Abcam (Cambridge, MA, USA).
(§2) Cells were seeded in 96-well plates (5 × 10^4 cells/well) and incubated overnight. Cells were incubated with different concentrations of PLN-5 at 37 °C for 72 h. After removal of the medium, MTT stock solution (5 mg/ml) was added and the incubation continued for 4 h. After centrifugation, the insoluble crystals were dissolved in dimethyl sulfoxide and gently shaken for 15 min. Finally, absorbance was measured at 570 nm using a microplate reader. The IC50 were calculated using Prism 6.0 software.
Background: Formazan colour is commonly taken as a measure of viable cells.

A further assay deals with T3, PLK4 (Homo sapiens, UniProt O00444).
T3 construct: ICE Bioscience Inc (Beijing, China) (performed the assay)
T3 sequence (O00444 1-970): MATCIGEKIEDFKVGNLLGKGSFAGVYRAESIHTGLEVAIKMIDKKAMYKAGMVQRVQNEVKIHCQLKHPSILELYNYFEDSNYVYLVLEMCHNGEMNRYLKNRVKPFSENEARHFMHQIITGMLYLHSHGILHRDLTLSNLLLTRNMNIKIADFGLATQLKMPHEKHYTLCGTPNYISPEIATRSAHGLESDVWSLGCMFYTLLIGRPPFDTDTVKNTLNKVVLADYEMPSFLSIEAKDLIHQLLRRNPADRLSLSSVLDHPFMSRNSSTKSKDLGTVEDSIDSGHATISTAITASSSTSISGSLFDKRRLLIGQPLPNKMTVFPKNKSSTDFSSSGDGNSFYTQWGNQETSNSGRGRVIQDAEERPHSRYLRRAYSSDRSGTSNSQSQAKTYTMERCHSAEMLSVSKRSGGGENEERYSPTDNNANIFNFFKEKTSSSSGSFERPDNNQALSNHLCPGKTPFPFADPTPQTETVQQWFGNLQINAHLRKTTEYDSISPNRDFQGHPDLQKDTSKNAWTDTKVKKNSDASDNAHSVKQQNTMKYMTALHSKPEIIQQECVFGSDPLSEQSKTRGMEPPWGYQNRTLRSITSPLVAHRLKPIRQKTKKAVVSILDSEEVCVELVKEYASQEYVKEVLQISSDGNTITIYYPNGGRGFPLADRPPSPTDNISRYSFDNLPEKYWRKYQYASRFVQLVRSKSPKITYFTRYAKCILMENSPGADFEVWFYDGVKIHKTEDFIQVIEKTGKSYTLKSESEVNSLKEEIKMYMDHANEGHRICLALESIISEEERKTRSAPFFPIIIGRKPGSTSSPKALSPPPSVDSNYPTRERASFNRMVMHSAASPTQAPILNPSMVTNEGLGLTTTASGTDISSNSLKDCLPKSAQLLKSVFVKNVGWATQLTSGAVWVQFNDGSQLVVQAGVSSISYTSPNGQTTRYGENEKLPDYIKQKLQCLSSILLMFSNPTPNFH
The assay is described as follows: In vitro selectivity assay PLK4. Type of assay: biochemical. As to the method: (§3) To assess the selectivity of PLN-5, we systematically determined its inhibitory activity against PLK2, PLK3, PLK4 (homologues of PLK1) and […]. This assay was performed by ICE Bioscience Inc (Beijing, China).

The target of another assay is T4, PLK2 (Homo sapiens, UniProt Q9NYY3).
T4 construct: ICE Bioscience Inc (Beijing, China) (performed the assay)
Briefly: In vitro selectivity assay PLK2. Type of assay: biochemical. On the procedure:
as §3

The subject of a further assay is A549 cells. The assay is described as follows: MTT assay A549. In kind it is cell-based. The following applies: Homo sapiens, 72 h treatment, mean ± SD, n = 3. As to the method: as §1, §2
Another assay relates to BEAS-2B cells. The assay is described as follows: MTT assay BEAS-2B. In kind it is cell-based, human. The following applies: normal lung cells, 72 h treatment, n = 3. On the procedure:
as §1, §2

The next assay deals with NCI-H460 cells. Briefly: MTT assay NCI-H460. In kind it is cell-based, human. As to the method:
as §1, §2

The target of the next assay is T5, NRP2 (Homo sapiens, UniProt O60462).
T5 construct: ICE Bioscience Inc (Beijing, China) (performed the assay)
T5 sequence (O60462 21-931): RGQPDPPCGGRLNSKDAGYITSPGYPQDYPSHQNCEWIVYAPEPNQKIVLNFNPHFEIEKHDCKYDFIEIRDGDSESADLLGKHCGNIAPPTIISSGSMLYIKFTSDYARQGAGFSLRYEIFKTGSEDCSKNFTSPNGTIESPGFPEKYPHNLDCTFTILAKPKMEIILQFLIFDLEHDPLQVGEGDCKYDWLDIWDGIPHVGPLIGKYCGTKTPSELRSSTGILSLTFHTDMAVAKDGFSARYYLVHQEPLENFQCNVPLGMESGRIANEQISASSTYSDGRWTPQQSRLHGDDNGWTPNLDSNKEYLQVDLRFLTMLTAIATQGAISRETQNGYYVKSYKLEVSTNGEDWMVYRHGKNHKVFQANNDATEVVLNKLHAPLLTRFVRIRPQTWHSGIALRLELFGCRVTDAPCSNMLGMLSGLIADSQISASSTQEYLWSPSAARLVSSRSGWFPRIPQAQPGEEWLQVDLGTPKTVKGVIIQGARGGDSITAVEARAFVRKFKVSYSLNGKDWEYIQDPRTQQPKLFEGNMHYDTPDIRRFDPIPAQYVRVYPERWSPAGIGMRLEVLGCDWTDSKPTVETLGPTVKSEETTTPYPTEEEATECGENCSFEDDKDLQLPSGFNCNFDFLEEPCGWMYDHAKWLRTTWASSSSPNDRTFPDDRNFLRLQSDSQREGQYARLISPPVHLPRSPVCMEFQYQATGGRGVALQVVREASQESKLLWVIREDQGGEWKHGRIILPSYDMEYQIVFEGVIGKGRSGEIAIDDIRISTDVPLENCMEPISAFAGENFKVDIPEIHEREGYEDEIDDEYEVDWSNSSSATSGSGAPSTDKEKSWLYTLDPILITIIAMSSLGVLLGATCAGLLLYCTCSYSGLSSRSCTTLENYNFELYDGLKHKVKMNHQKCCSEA
Briefly: In vitro selectivity assay NRP2. Type of assay: biochemical. The conditions noted are these: n = 3. As to the method: as §3

The target in the next assay is T6, PLK3 (Homo sapiens, UniProt Q9H4B4).
T6 construct: ICE Bioscience Inc (Beijing, China) (performed the assay)
Briefly: In vitro selectivity assay PLK3. The following applies: n = 3. In kind it is biochemical. On the procedure:
as §3

T2 sequence (P53350 whole entry): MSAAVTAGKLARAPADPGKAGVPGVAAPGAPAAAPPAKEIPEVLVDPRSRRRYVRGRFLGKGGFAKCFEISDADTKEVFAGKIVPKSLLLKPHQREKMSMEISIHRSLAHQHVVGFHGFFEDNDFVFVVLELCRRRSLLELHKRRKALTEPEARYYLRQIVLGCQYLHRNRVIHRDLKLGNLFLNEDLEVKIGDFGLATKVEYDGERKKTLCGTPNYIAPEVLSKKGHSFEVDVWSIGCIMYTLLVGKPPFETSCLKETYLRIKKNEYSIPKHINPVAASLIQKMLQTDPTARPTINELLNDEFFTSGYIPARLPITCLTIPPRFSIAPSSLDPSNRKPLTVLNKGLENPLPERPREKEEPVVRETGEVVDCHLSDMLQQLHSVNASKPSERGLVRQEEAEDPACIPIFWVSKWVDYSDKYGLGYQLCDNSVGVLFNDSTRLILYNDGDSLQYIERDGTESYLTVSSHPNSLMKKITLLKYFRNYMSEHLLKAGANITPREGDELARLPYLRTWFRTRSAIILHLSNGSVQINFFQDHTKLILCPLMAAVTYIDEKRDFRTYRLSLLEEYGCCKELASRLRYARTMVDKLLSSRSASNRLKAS
T1 sequence (O14786 22-923): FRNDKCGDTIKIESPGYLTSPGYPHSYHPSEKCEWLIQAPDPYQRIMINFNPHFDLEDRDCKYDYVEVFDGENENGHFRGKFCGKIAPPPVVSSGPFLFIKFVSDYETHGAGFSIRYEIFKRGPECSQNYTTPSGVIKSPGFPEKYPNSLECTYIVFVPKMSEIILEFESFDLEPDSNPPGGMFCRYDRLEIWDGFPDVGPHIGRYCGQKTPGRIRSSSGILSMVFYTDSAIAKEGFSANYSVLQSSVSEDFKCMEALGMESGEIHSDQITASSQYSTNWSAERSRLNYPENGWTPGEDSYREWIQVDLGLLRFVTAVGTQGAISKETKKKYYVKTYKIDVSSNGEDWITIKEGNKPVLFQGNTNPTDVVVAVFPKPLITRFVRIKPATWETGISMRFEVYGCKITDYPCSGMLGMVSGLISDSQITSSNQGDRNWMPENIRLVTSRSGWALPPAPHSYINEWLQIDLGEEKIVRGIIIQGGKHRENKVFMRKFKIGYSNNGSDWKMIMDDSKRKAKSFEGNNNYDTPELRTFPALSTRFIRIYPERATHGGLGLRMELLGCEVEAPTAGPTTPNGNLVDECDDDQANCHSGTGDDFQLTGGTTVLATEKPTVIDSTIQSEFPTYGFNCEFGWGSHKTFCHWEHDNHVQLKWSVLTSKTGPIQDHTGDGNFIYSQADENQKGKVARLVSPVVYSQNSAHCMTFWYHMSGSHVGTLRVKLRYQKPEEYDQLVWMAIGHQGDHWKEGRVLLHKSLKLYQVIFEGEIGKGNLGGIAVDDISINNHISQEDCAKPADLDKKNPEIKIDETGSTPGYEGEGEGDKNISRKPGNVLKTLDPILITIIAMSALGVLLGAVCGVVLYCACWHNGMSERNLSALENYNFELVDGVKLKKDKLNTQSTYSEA
T4 sequence (Q9NYY3 whole entry, species assumed): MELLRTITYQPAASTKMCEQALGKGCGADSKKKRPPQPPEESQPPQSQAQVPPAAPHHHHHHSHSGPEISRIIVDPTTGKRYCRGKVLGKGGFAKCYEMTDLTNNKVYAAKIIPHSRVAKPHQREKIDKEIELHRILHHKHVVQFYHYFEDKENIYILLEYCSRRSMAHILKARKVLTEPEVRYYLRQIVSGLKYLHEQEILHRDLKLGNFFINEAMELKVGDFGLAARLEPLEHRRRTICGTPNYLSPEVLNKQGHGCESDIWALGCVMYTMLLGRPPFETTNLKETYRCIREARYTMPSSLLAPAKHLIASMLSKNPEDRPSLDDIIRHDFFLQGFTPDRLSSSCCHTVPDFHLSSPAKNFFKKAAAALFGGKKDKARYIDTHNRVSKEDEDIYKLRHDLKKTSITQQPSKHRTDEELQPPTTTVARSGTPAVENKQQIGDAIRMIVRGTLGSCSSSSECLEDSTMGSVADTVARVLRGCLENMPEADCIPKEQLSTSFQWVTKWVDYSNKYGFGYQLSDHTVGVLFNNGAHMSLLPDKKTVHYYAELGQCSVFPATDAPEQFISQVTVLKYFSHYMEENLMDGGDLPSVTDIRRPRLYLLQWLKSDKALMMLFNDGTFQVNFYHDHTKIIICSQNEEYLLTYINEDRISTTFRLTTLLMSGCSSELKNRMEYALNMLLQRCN
T6 sequence (Q9H4B4 whole entry, species assumed): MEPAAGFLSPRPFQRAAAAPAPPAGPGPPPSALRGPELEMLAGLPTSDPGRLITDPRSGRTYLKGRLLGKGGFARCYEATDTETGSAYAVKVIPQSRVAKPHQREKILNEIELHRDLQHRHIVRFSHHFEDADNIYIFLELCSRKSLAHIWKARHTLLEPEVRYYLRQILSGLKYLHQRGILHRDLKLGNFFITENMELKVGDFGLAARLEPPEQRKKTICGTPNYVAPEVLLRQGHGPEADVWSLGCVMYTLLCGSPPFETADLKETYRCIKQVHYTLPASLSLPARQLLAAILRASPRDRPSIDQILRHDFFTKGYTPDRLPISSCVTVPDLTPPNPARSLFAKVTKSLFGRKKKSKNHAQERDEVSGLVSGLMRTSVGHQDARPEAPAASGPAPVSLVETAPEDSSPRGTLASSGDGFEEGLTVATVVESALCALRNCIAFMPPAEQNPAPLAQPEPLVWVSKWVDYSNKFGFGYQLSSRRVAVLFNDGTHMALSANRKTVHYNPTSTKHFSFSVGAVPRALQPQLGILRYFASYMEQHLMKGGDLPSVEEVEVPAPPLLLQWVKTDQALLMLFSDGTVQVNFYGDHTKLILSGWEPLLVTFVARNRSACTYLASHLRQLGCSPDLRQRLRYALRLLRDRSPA

What is called IC50 is the point on the concentration scale where inhibition reaches its midpoint. Read a high IC50 as weaker potency. `NC(N)=NCCC[C@H](NC(=O)c1sccc1NS(=O)(=O)c1cccc2nsnc12)C(=O)O` [EG00229, reference compound]: the IC50 on NRP1 (mean ± SD, n = 3) was 0.64 ± 0.0208 µM. In addition, the “PLK1 (IC50, nM)” value at PLK1 (mean ± SD, n = 3) was “no inhibition”.

`CN1CCN(c2ccc(OC(F)(F)F)c(Nc3ncc4c(n3)-c3c(c(C(N)=O)nn3CCO)CC4)c2)CC1` [Onvansertib, onvansertib, reference compound]: on NRP1 (mean ± SD, n = 3), the “NRP1 (IC50, nM)” value was “no inhibition”.

Regarding `Cc1ncc(CCCN(C)CC(=O)N[C@@H](CCCN=C(N)N)C(=O)O)cc1Nc1ncc2c(n1)-c1ccc(C#N)cc1NC(=O)C2` [PLN-1], the IC50 at NRP1 (mean ± SD, n = 3) was 0.0127 ± 0.00081 µM; on PLK1 (mean ± SD, n = 3), 0.00812 ± 0.00034 µM.

`NC(N)=NCCC[C@H](NC(=O)CCCCCc1cncc(Nc2ncc3c(n2)-c2ccc(Cl)cc2NC(=O)C3)c1)C(=O)O` [PLN-2]: the IC50 was found to be 0.0243 ± 0.00129 µM at NRP1 (mean ± SD, n = 3) and 0.0165 ± 0.00286 µM against PLK1 (mean ± SD, n = 3).

In the case of `COc1ncc(Nc2ncc3c(n2)-c2ccc(Cl)cc2NC(=O)C3)cc1CCCCCC(=O)N[C@@H](CCCN=C(N)N)C(=O)O` [PLN-3], the IC50 on NRP1 (mean ± SD, n = 3) came to 0.0305 ± 0.00255 µM; against PLK1 (mean ± SD, n = 3), 0.0114 ± 0.00074 µM.

Take `CCc1ccc2c(c1)NC(=O)Cc1cnc(Nc3cc(CCCN(C)CC(=O)N[C@@H](CCCN=C(N)N)C(=O)O)cnc3C)nc1-2` [PLN-4]: the IC50 on NRP1 (mean ± SD, n = 3) was 0.00783 ± 0.00042 µM; on PLK1 (mean ± SD, n = 3) it was 0.00451 ± 0.00026 µM.

Regarding `Cc1ncc(CCCN(C)CC(=O)N[C@@H](CCCN=C(N)N)C(=O)O)cc1Nc1ncc2c(n1)-c1ccc(Cl)cc1NC(=S)C2` [PLN-5], the IC50 was 0.33 ± 0.02 µM in the assay on A427 cells; greater than 10 µM on PLK4; 0.00515 ± 0.00024 µM on NRP1 (mean ± SD, n = 3); greater than 10 µM against PLK2; 0.41 ± 0.03 µM in the assay with A549 cells; greater than 10 µM in the assay on BEAS-2B cells (Homo sapiens, BEAS-2B). In addition, the IC50 is 0.00207 ± 0.00013 µM at PLK1 (mean ± SD, n = 3); 0.27 ± 0.02 µM with NCI-H460 cells (Homo sapiens, NCI-H460, 72 h treatment, MTT, mean ± SD, n = 3); greater than 10 µM at NRP2; greater than 10 µM against PLK3. Besides, on NRP1 (ratio of IC50 values vs positive control EG00229), the “NRP1 potency relative to EG00229” value is roughly 124 fold. In the assay on BEAS-2B cells, the “IC50 (μM) BEAS-2B” value is given as “no significant inhibitory effect”. Also, the “PLK1 potency relative to onvansertib” value on PLK1 (ratio of IC50 values vs positive control onvansertib) is on record as “approximately 9 fold”. In addition, the “cell survival rate of NCI-H460 cells” value in the assay with NCI-H460 cells (2 μM compound) is listed as “lowest survival rate”. In the assay on NCI-H460 cells (MTT assay), the “inhibition rate against NCI-H460 cells” value was “more than 90%”.
